The values that follow come from EP2067787A1, “Method for controlling insect populations” (Boehringer Ingelheim International GmbH, priority 2007, dated 2009).

Bridge positions count the residues as written; N and C are the ends. Square brackets hold non-standard residues; d marks the D form. Ends that are not written are not given here. Peptide text beside a SMILES is read from it. pGlu = O=C1CC[C@@H](C(=O)O)N1

The test system of one assay is D. pseudoobscura SPR. Kind of assay: CHO cell aequorin luminescence assay, insect SPR orthologue. The assay is classed as cell-based. As to conditions: CHO cells expressing SPR, aequorin and Gαqi.
The conditions of assay [1]: Saudan et al., 2002; cited from earlier work.
A further assay has as its system B. mori SPR. Kind of assay: CHO cell aequorin luminescence assay, insect SPR orthologue. The assay is classed as cell-based, Bombyx mori. As to conditions: CHO cells expressing SPR, aequorin and Gαqi.
A further assay has as its system A. aegypti SPR. The assay is described as above. It is filed as cell-based, Aedes aegypti. Particulars: CHO cells expressing SPR, aequorin and Gαqi.
The next assay deals with CG8784. Kind of assay: CHO cell aequorin luminescence assay, related GPCR. The assay is classed as cell-based, Drosophila. As to conditions: 10µM peptide; CHO cells expressing CG8784 and aequorin.
For a further assay, the target named is T1, CG16752 (Drosophila melanogaster, UniProt Q8SWR3).
T1 construct: The relevant GPCRs are expressed from constructs prepared by cloning the entire open reading frame in a pcDNA3.1(+) vector; expressed in transfected cells; host or cells: CHO-K1
T1 sequence (Q8SWR3 1-435): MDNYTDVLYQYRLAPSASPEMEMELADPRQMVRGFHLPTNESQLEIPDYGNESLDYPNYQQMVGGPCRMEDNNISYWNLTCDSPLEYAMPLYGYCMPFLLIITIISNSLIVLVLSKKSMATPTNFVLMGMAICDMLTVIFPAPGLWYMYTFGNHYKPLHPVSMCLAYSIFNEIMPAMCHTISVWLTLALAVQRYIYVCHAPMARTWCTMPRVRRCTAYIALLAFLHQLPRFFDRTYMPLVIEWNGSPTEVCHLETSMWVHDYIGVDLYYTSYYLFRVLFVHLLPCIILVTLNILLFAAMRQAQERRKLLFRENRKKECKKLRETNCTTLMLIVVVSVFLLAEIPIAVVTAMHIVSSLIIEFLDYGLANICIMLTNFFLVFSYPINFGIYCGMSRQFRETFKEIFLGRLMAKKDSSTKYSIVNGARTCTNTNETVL
Description: CHO cell aequorin luminescence (Ca2+) assay. It is filed as cell-based. As to conditions: for Ca^2+ responses: 0.1µM or 10µM SP.

For a further assay, the system named is virgin females. Kind of assay: Receptivity of virgin females after SP injection. It is filed as in vivo, Drosophila. As to conditions: assayed 5 h after injection.
The target in a further assay is T2, CG2114 (Drosophila melanogaster, UniProt Q9VZW5).
T2 construct: The relevant GPCRs are expressed from constructs prepared by cloning the entire open reading frame in a pcDNA3.1(+) vector; expressed in transfected cells; host or cells: CHO-K1
T2 sequence (Q9VZW5 1-549): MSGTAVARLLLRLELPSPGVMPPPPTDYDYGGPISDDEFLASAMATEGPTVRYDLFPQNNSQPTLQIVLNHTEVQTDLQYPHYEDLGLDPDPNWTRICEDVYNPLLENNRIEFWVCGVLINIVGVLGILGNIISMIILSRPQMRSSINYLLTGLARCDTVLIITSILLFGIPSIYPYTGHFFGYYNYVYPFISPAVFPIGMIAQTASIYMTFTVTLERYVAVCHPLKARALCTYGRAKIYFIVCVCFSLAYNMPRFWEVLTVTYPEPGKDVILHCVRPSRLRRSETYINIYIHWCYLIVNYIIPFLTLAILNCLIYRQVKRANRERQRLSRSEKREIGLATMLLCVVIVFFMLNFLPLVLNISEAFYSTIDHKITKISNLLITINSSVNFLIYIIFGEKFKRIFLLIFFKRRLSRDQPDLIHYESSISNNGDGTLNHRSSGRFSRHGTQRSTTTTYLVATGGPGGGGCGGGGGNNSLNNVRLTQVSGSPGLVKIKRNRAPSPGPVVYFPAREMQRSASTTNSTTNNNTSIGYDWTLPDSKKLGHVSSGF
Kind of assay: CHO cell aequorin luminescence assay, related GPCR. It is filed as cell-based. Particulars: 10µM peptide; CHO cells expressing CG2114 and aequorin.

A further assay deals with Helicoverpa armigera. As to conditions: Fan et al., 1999 and 2000; cited from earlier work.
Assay [2] concerns the target T3, Drosophila melanogaster sex peptide receptor (SPR), GPCR encoded by CG16752 (Drosophila melanogaster, UniProt Q8SWR3 1-435).
T3 sequence: T1 sequence (Q8SWR3 1-435)
Description: cell-based or functional assay.

In assay [3] the target is T4, SPR of Drosophila pseudoobscura (Drosophila pseudoobscura).
T4 chain: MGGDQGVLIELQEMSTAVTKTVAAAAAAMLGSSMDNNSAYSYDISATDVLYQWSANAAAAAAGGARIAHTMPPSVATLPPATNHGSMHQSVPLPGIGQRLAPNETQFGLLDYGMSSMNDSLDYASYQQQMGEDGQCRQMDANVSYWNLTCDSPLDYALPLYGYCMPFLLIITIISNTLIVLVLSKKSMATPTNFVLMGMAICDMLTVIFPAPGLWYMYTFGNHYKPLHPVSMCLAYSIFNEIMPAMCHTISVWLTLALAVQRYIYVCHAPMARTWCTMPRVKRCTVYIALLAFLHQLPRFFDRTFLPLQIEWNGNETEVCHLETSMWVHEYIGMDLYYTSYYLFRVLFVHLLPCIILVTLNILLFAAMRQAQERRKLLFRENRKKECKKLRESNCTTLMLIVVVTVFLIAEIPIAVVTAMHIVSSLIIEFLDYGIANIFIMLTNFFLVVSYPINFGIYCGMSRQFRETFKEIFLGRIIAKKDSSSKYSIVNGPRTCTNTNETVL
Description: cell-based or functional assay.

The target in a further assay is T5, SPR of Bombyx mori (Bombyx mori).
T5 chain: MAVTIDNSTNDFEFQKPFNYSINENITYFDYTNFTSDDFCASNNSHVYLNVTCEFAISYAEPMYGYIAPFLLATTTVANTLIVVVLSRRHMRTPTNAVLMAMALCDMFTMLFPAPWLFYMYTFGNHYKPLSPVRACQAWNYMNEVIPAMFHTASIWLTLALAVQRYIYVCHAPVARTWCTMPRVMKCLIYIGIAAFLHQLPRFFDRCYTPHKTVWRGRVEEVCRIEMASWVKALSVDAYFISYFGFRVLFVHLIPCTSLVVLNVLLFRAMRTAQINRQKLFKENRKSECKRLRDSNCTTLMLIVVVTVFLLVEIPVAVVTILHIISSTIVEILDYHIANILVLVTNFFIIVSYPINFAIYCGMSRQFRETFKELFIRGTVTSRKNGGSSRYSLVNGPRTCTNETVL
Description: cell-based or functional assay.

The target in the next assay is T6, SPR of Aedes aegypti (Aedes aegypti).
T6 chain: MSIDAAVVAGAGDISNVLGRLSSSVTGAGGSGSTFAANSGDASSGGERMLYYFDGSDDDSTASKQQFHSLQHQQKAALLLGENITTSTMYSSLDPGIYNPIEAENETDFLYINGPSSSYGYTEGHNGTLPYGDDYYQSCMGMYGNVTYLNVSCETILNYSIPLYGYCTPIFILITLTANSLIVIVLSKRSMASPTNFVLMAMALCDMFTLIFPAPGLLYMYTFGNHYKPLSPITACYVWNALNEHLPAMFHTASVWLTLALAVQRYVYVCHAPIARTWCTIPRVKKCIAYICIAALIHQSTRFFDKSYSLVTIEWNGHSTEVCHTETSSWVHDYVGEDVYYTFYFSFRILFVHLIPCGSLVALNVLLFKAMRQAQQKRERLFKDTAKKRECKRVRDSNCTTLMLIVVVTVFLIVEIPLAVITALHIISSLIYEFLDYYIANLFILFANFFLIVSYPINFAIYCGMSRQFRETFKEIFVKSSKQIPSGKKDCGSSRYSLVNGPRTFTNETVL
Kind of assay: cell-based or functional assay.

In the case of `CC[C@H](C)[C@H](NC(=O)[C@H](Cc1c[nH]c2ccccc12)NC(=O)[C@H](CCC(=O)O)NC(=O)[C@@H](NC(=O)[C@H](CC(=O)O)NC(=O)[C@H](CC(N)=O)NC(=O)[C@H](CCCNC(=N)N)NC(=O)[C@H](CC(=O)O)NC(=O)[C@@H]1CCC(=O)N1)[C@@H](C)O)C(=O)N[C@@H](CCC(N)=O)C(=O)N[C@@H](CO)C(=O)N[C@@H](CCC(N)=O)C(=O)N[C@@H](CCCCN)C(=O)N[C@@H](CC(=O)O)C(=O)N[C@@H](CCCNC(=N)N)C(=O)N[C@@H](CCC(=O)O)C(=O)N[C@@H](CCCCN)C(=O)N[C@@H](Cc1c[nH]c2ccccc12)C(=O)N[C@H]1CSSC[C@@H](C(=O)O)NC(=O)[C@H](CCCNC(=N)N)NC(=O)CNC(=O)CNC(=O)[C@H](CC(C)C)NC(=O)[C@H](Cc2ccc(O)cc2)NC(=O)[C@@H]2CCCN2C(=O)CNC(=O)[C@H](CC(C)C)NC(=O)[C@H](CC(N)=O)NC(=O)[C@H](CC(C)C)NC(=O)[C@H](CCCNC(=N)N)NC1=O` [DUP99B] ([pGlu]DRNDTEWIQSQKDREKWCRLNLGPYLGGRC-OH; disulfide 19-31), the “response of receptor to peptide” value with D. pseudoobscura SPR, in the assay with B. mori SPR and with A. aegypti SPR was “lower sensitivity” each time. Moreover, the post-mating responses entry in [1] is “can induce the same post-mating responses as SP”.

On to “pQLQSNGEPAYRVRTPRLa ([pGlu]LQSNGEPAYRVRTPRL-NH2; SMILES CC(C)C[C@H](NC(=O)[C@H](CCCNC(=N)N)NC(=O)[C@@H]1CCCN1C(=O)[C@@H](NC(=O)[C@H](CCCNC(=N)N)NC(=O)[C@@H](NC(=O)[C@H](CCCNC(=N)N)NC(=O)[C@H](Cc1ccc(O)cc1)NC(=O)[C@H](C)NC(=O)[C@@H]1CCCN1C(=O)[C@H](CCC(=O)O)NC(=O)CNC(=O)[C@H](CC(N)=O)NC(=O)[C@H](CO)NC(=O)[C@H](CCC(N)=O)NC(=O)[C@H](CC(C)C)NC(=O)[C@@H]1CCC(=O)N1)C(C)C)[C@@H](C)O)C(N)=O) [hugin-γ, ligand of CG8784]”, for which the “sensitivity to peptide ligand” value with CG8784 is recorded as “confer sensitivity”. The “activation of receptor by peptide ligand” value with CG16752 (10µM peptide, co-transfected with Gαqi) was “Neither of these peptides activates”.

Usually EC50 stands for the concentration needed to bring the measured effect to its halfway point. Read a high EC50 as lower potency in that assay. As to `CC[C@H](C)[C@H](NC(=O)[C@@H]1C[C@@H](O)CN1C(=O)[C@H](Cc1ccccc1)NC(=O)[C@H](CCCCN)NC(=O)[C@@H](NC(=O)[C@@H]1C[C@@H](O)CN1C(=O)[C@H](CCCCN)NC(=O)[C@H](CCCNC(=N)N)NC(=O)[C@H](CC(N)=O)NC(=O)[C@H](Cc1c[nH]c2ccccc12)NC(=O)[C@@H]1CCCN1C(=O)[C@H](Cc1c[nH]c2ccccc12)NC(=O)[C@H](CCC(=O)O)NC(=O)[C@@H](N)Cc1c[nH]c2ccccc12)[C@@H](C)O)C(=O)N1C[C@H](O)C[C@H]1C(=O)N[C@@H](CO)C(=O)N1C[C@H](O)C[C@H]1C(=O)N[C@@H](CC(N)=O)C(=O)N1C[C@H](O)C[C@H]1C(=O)N[C@@H](CCCNC(=N)N)C(=O)N[C@@H](CC(=O)O)C(=O)N[C@@H](CCCCN)C(=O)N[C@@H](Cc1c[nH]c2ccccc12)C(=O)N[C@H]1CSSC[C@@H](C(=O)O)NC(=O)[C@H](CCCNC(=N)N)NC(=O)CNC(=O)CNC(=O)[C@H](Cc2c[nH]c3ccccc23)NC(=O)[C@H](C)NC(=O)[C@@H]2CCCN2C(=O)CNC(=O)[C@H](CC(C)C)NC(=O)[C@H](CC(N)=O)NC(=O)[C@H](CC(C)C)NC(=O)[C@H](CCCNC(=N)N)NC1=O` [SP], the half-maximal effective concentration (EC50) with D. pseudoobscura SPR turned out to be 4.3 nM; in the assay on B. mori SPR it was 63 nM; in the assay with A. aegypti SPR, 167 nM. In addition, the “receptivity to naive males” value is reported as “remaine receptive” in the assay with virgin females (Df(1)Exel6234 homozygous virgins, 12pmol SP injected) and “unreceptive” in the assay on virgin females (wild-type virgins, 12pmol SP injected into haemolymph). Also, the “sensitivity to peptide ligand” value on CG2114 and in the assay with CG8784 was “not to SP” throughout. Moreover, in the assay on Helicoverpa armigera, the post-mating responses entry is “can induce post-mating responses”. For the same molecule, the “Ca^2+ responses” value is recorded as “robust Ca^2+ responses” at CG16752 (cotransfected chimeric G protein Gαqi), “robust Ca^2+ responses” on CG16752 (cotransfected chimeric G protein Gαqo) and “not Gαqs” on CG16752 (cotransfected chimeric G protein Gαqs). Also, the luminescence response entry on CG16752 (no additional G protein (endogenous Gαq/11), concentrations as high as 10µM) is reported as “very weak response”.

For [pGlu]DRNDTEWIQSQKDREKWCRLNLGPYLGGRC (disulfide 19-31 (inferred)) [synthetic DUP99B], in assay [2], the “EC50, dose-response of luminescence in CHO cells expressing CG16752, aequorin and Gαqi” value came out at 7.3 nM.

B1: synthetic sex peptide (SP) of Drosophila melanogaster (peptide)
peptide: WEWPWNRKPTKFPIPSPNPRDKWCRLNLGPAWGGRC
modifications: disulfide 24-36 (inferred); also: hydroxyproline at some P residues, places not given here
B1: the “EC50, dose-response of luminescence in CHO cells expressing the SPR, aequorin and Gαqi” value in [3] is 4.3 nM; in the assay with SPR of Bombyx mori it was 63 nM; with SPR of Aedes aegypti it was 167 nM. Further, the “EC50, dose-response of luminescence in CHO cells expressing CG16752, aequorin and Gαqi” value in assay [2] is 1.3 nM.
